In patent US20140080903A1, “APPLICATION OF ALPHA-MANGOSTIN IN PREPARATION OF MEDICAMENTS FOR ALZHEIMER'S DISEASE” (BOMAI LIMITED, priority 2011, published 2014):
Like-named read-outs stand apart in the source and are kept apart here. Values belong to the compound of their own block, whether it stands above or below them.

Assays:
Aβ = target: T1, Aβ (Homo sapiens, UniProt P05067); assay: Thioflavin-T fluorescence kinetics of Aβ aggregation; assay type: biochemical; conditions: inhibitor:Aβ 1:1, 37° C.; for incubation time at which Aβ enters into accumulation: Aβ itself 4 hours
T1 construct: purchased Sigma-Aldrich Corporation (China)
Experimental: Resveratrol, Curcumin and Propidium Iodide are the reported inhibitors on Aβ aggregation.
1 mg Aβ was dissolved in 500 μL HFIP, and put at room temperature for 120 minutes with intermittent shaking Then HFIP was dried by high pure nitrogen blowing and 100 μL DMSO was added to prepare an Aβ stock of 2.3 mM, which was stored at −20° C. DMSO was employed to dilute Aβ stock and 2 μL diluted solution was added to 16 μL PBS (0.215M, pH 8.0), which made a solution of Aβ at […], to which 2 μL α-Mangostin (25 μM) or other inhibitors, and blank solvent was added. Followed with incubation for 30 minutes, the mixture was added 80 μL Thioflavin-T(10 μM)/Glycine-NaOH (50 mM, pH8.5) and transferred to microplate for fluorescence intensity measurement. The parameters for measurement was set up as follow: instrument temperature of 37° C., shaking frequency of 240 rpm, radius of […], excitation wavelength of 446 nm, emission wavelength of 485 nm, bandwidth of 5 nm, and detection frequent of every 30 minute. Fluorescence intensity was recorded and statistically analyzed.

SAM-P8 mice = assay: Morris water maze test in SAM-P8 mice; assay type: in vivo; conditions: for distance: mid-dose group
Experimental: Female SAM-P8 mice of 8-month old were employed as the model animal in the invention. All of the mice experimental procedures strictly followed the Guide for the Care and Use of Laboratory Animals as adopted and promulgated by the National Institutes of Health, USA, including sterile rearing environment, temperature controlled between 23° C. and 25° C., humidity controlled at 55±5%, and an interval of twelve hours light.
The concentration and dose of α-Mangostin applied in the experiment were adjusted according to the different animal models. In molecular experiments, α-Mangostin was employed to calibrate the concentration of Aβ, prepared with the unit of molar concentration, and compared with the known Aβ aggregation inhibitor. In cellular experiments, α-Mangostin was also prepared with the unit of molar concentration, and provided in screening from the concentration of 50 pmol/L to 500nmol/L. In animal experiments, following the established practice, α-Mangostin was prepared with the unit of weight/animal weight, provided dosage range across three orders of magnitude of low dose (1 μg/kg), mid dose (10 μg/kg), high dose (100 μg/kg), and administrated orally (O.P., Solid granules).
SAM-P8 mice were weight and divided into five groups randomly, including the model group, low-dose (1 μg/kg) , mid-dose (10 μg/kg) , high-dose ([…]) groups and positive control group treated with resveratrol (10 mg/kg). SAM-R1 mice were used as normal control. Reagents were mixed in food and applied to mice from the 3rd day after grouping (enter 6 months age) to the end of the test. Normal control group and model group were administrated with the same amount of food.
Morris water maze test was carried out when SAM-P8 mice entered the age of 8 months. Water temperature in the experiment was controlled at 22±0.5° C. Mice were put into water with their faces towards the wall and backs towards water. The computer started automatically to record the trace and time (escape latency) of mice seeking the platform within 100 seconds. […] The tests were carried out twice every day, with an interval of 6 hours, and continued for 3 days. After place navigation test, the platform was removed. Mice were placed into water at a certain place of entry. The first time those mice reached the platform and the times that mice across the platform were recorded.

Histamine H1-receptor = Histamine H1-receptor (Homo sapiens, UniProt P35367); conditions: generally; cited from earlier work
Aβ oligomer = target: T2, Aβ oligomer (Homo sapiens, UniProt P05067); assay: ELISA determination of Aβ oligomer (6E10/A11); assay type: biochemical
T2 construct: purchased Sigma-Aldrich Corporation (China)
Experimental: 1 mg Aβ was dissolved in 500 μL HFIP at room temperature, of which 100 μL was transferred into a clean centrifuge tube (1.5 mL), where 900 μL sterile deionized water was added. Followed with centrifugation, the supernatant was moved to another clean centrifuge tube (1.5 mL) and HFIP was dried with high pure nitrogen blowing. Then the solution was stirred at 500 rpm for 48 hours at 22° C., using a micro stir bar, to get the solution of Aβ oligomer (1 μM). In inhibition experiment, α-Mangostin was added into the Aβ oligomer solution to obtain the final concentrations of 5 μM, 2 μM, 1 μM, 0.5 μM and 0.2 μM, respectively, and followed with another 12 hours stirring at 500 rpm and 22° C.α-Mangostin can also be added before stirring with Aβ oligomer for 12 hours.
The incubated solution was applied into the 96-well microplate coated with 100 μL monoclonal anti-Aβ antibody (6E10). After incubation for 1 hour at 37° C., the wells were washed 3 times with washing buffer and 100 μL Oligomer-specific antibody (A11) was applied. After 5 times washing, 100 μL HRP-conjugated Goat anti-Rabbit IgG was applied. After another 5 times washing and 15 minutes colour developing, the optical density was recorded and statistically analyzed with plate reader.

primary neuronal cells = assay: high content assay of neuroprotective effect against Aβ oligomer; assay type: cell-based, SD rat; conditions: 50 nM α-Mangostin, 1 μM Aβ oligomer
Experimental: Mammalian neurons in the experiment were prepared from embryonic day 15 SD rat embryos. A medium specific for neurons was employed, including neurobasal, 2% B27 and 1% glutamine that were all commercial and used following the instructions of the manufacturer.
Embryonic day 15 SD rats are etherized and embryos were collected to a sterile dish with an anatomic buffer. Heads of the embryos were cut to a precooling dish with an anatomic buffer. A pair of straight forceps were inserted through eyes to fix the head, and another pincett was inserted along the head sagittal suture. The mening and skull were torn from front to back and to collect the brain. The hippocampus was peeled to the anatomic buffer in a precooling dish. The hippocampus was dissected by scissors disinfected with 75% alcohol. The minced tissues were collected into a marked 15 ml centrifuge tube and let them naturally precipitate to the bottom of the tube. The supernatant was discarded, and 2 mL 0.05% Trypsin was added. The tube was flipped several times and let it incubate for 5 minutes at 37° C. (shake evenly every two minutes). […]
The live cell dye stock in CELLOMICS ® Multiparameter Cytotoxicity 2 Kit was diluted to its working concentration. […] The fluorescence intensity was measured with high content plate reader and analyzed by the software of Cell Health Profiling Bio Application.

[1] = 5 μM α-Mangostin, mole ratio to Aβ oligomer 5:1

T1 sequence (P05067 672-711 limits assumed): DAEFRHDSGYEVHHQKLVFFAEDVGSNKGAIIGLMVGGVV
T2 sequence (P05067 672-711 limits assumed): as above
Histamine H1-receptor, sequence (P35367 whole entry, species assumed): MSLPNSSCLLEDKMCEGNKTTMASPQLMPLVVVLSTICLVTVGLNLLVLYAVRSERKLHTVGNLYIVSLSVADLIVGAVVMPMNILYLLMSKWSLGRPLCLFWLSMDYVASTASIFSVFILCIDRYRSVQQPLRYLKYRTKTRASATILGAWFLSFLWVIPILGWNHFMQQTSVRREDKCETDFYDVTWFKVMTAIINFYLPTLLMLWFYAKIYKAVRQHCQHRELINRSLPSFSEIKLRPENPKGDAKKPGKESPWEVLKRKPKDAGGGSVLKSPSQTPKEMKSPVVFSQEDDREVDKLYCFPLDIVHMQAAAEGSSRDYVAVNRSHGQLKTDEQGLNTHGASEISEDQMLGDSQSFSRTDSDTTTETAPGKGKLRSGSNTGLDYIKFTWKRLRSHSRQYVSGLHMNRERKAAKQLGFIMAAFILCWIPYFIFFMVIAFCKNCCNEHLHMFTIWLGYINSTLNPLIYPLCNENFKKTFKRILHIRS

incubation time at which Aβ enters into plateau (Aβ): 15 h
SMILES: COc1cc(/C=C/C(=O)CC(=O)/C=C/c2ccc(O)c(OC)c2)ccc1O [curcumin]

incubation time at which Aβ enters into plateau (Aβ): 10 h
maximum fluorescence intensity compared with Aβ incubated itself (Aβ; within 24 hours): 10%
incubation time at which Aβ enters into accumulation (Aβ): 6 h
SMILES: CC[N+](C)(CC)CCC[n+]1c(-c2ccccc2)c2cc(N)ccc2c2ccc(N)cc21.[I-].[I-] [propidium iodide]

incubation time at which Aβ enters into plateau (Aβ): 15 h
SMILES: Oc1ccc(C=Cc2cc(O)cc(O)c2)cc1 [resveratrol, reference compound]
escape latency and distance compared with model group (SAM-P8 mice; from day 3, resveratrol 10 mg/kg positive control): notably decreased

SMILES: COc1c(O)cc2oc3cc(O)c(CC=C(C)C)c(O)c3c(=O)c2c1CC=C(C)C [α-Mangostin]
working concentration as Histamine H1-receptor antagonist (Histamine H1-receptor): higher than 10^−6 mol/L
escape latency (SAM-P8 mice; day 2, mid-dose group 10 m/kg, oral in food, model 72.17±10.09 s): 46.16 ± 5.51 s
escape latency (SAM-P8 mice; from day 3, first value, mid-dose group 10 μg/kg, model 55.66±5.51 s): 40.02 ± 4.16 s
distance (SAM-P8 mice; from day 3, first value, model 773.06±65.54): 438.78±46.02 cm
escape latency (SAM-P8 mice; from day 3, second value, mid-dose group 10 μg/kg, model 39.93±4.12 s): 19.05 ± 3.27 s
distance (SAM-P8 mice; from day 3, second value, model 543.13±56.72): 223.15±31.29 cm
inhibition of Aβ aggregation (Aβ; within 24 hours): almost completely inhibited
incubation time at which Aβ enters into accumulation (Aβ): no accumulation phase appeared within 24 hours
formation of Aβ oligomer inhibited to (Aβ oligomer; [1]): 14.15±2.86%
formed Aβ oligomer disaggregated to (Aβ oligomer; [1]): 39.58±3.25%
IC50 (Aβ oligomer; read-out: IC50 of disaggregation of formed Aβ oligomer): 1.59 ± 0.82 µM
IC50 (Aβ oligomer; read-out: IC50 of inhibition on Aβ oligomer formation): 1.09 ± 0.54 µM
mitochondrial membrane potential (primary neuronal cells; model 70.25±6.97%): 105.25±5.84%
cell membrane permeability of neuronal cells (primary neuronal cells; model 173.75±6.82%): 107.75±9.39%
